Experimental data as given in ChEMBL document CHEMBL5649169 (ChemMedChem, 2018).

Legend:
[1] = target: Proteasome activator complex subunit 2 (Homo sapiens) (UniProt Q9UL46)
[2] = target: ATP synthase F(0) complex subunit g, mitochondrial (Homo sapiens) (UniProt O75964)
[3] = target: Sideroflexin-1 (Homo sapiens) (UniProt Q9H9B4)
[4] = target: Mitochondrial import inner membrane translocase subunit TIM50 (Homo sapiens) (UniProt Q3ZCQ8)
[5] = target: Antigen peptide transporter 2 (Homo sapiens) (UniProt Q03519)
[6] = target: Lipopolysaccharide-responsive and beige-like anchor protein (Homo sapiens) (UniProt P50851)
[7] = target: Heterogeneous nuclear ribonucleoprotein L (Homo sapiens) (UniProt P14866)
[8] = target: Protein THEM6 (Homo sapiens) (UniProt Q8WUY1)
[9] = target: Large ribosomal subunit protein eL30 (Homo sapiens) (UniProt P62888)
[10] = target: KH domain-containing, RNA-binding, signal transduction-associated protein 1 (Homo sapiens) (UniProt Q07666)
[11] = target: Dual specificity tyrosine-phosphorylation-regulated kinase 1A (Homo sapiens) (UniProt Q13627)
[12] = target: AP2-associated protein kinase 1 (Homo sapiens) (UniProt Q2M2I8)
[13] = target: Serine/threonine-protein kinase A-Raf (Homo sapiens) (UniProt P10398)
[14] = target: Mitogen-activated protein kinase 7 (Homo sapiens) (UniProt Q13164)
[15] = target: 28S rRNA (cytosine(4447)-C(5))-methyltransferase (Homo sapiens) (UniProt P46087)
[16] = target: SUMO-conjugating enzyme UBC9 (Homo sapiens) (UniProt P63279)
[17] = target: Transmembrane protein 161A (Homo sapiens) (UniProt Q9NX61)
[18] = target: Cullin-1 (Homo sapiens) (UniProt Q13616)
[19] = target: Histone deacetylase 1 (Homo sapiens) (UniProt Q13547)
[20] = target: Isocitrate dehydrogenase [NADP], mitochondrial (Homo sapiens) (UniProt P48735)
[21] = target: Glycogen synthase kinase-3 beta (Homo sapiens) (UniProt P49841)
[22] = target: Clathrin heavy chain 1 (Homo sapiens) (UniProt Q00610)
[23] = species: Homo sapiens
[24] = target: Pre-mRNA-splicing factor SPF27 (Homo sapiens) (UniProt O75934)
[25] = target: Ubiquitin-conjugating enzyme E2 L3 (Homo sapiens) (UniProt P68036)
[26] = target: Interleukin-1 receptor-associated kinase 1 (Homo sapiens) (UniProt P51617)
[27] = target: Phosphoenolpyruvate carboxykinase [GTP], mitochondrial (Homo sapiens) (UniProt Q16822)
[28] = target: Adenosine 3'-phospho 5'-phosphosulfate transporter 1 (Homo sapiens) (UniProt Q8TB61)
[29] = target: 5'-AMP-activated protein kinase subunit gamma-1 (Homo sapiens) (UniProt P54619)
[30] = target: ATP-binding cassette sub-family D member 3 (Homo sapiens) (UniProt P28288)
[31] = target: Serine/threonine-protein kinase MRCK beta (Homo sapiens) (UniProt Q9Y5S2)
[32] = target: Ran-specific GTPase-activating protein (Homo sapiens) (UniProt P43487)
[33] = target: Kinectin (Homo sapiens) (UniProt Q86UP2)
[34] = target: Mitochondrial antiviral-signaling protein (Homo sapiens) (UniProt Q7Z434)
[35] = target: AP-2 complex subunit sigma (Homo sapiens) (UniProt P53680)
[36] = target: Ceroid-lipofuscinosis neuronal protein 6 (Homo sapiens) (UniProt Q9NWW5)
[37] = target: Double-strand break repair protein MRE11 (Homo sapiens) (UniProt P49959)
[38] = target: SUN domain-containing protein 2 (Homo sapiens) (UniProt Q9UH99)
[39] = target: Serrate RNA effector molecule homolog (Homo sapiens) (UniProt Q9BXP5)
[40] = target: Calpain-1 catalytic subunit (Homo sapiens) (UniProt P07384)
[41] = target: Protein SGT1 homolog (Homo sapiens) (UniProt Q9Y2Z0)
[42] = target: ADP-sugar pyrophosphatase (Homo sapiens) (UniProt Q9UKK9)
[43] = target: Ribosomal protein S6 kinase alpha-1 (Homo sapiens) (UniProt Q15418)
[44] = target: Proteasome subunit alpha type-5 (Homo sapiens) (UniProt P28066)
[45] = target: Cell division cycle 5-like protein (Homo sapiens) (UniProt Q99459)
[46] = target: Coronin-1A (Homo sapiens) (UniProt P31146)
Note: assay method not described here.

Mitochondrial antiviral-signaling protein (Homo sapiens), sequence (Q7Z434 whole entry): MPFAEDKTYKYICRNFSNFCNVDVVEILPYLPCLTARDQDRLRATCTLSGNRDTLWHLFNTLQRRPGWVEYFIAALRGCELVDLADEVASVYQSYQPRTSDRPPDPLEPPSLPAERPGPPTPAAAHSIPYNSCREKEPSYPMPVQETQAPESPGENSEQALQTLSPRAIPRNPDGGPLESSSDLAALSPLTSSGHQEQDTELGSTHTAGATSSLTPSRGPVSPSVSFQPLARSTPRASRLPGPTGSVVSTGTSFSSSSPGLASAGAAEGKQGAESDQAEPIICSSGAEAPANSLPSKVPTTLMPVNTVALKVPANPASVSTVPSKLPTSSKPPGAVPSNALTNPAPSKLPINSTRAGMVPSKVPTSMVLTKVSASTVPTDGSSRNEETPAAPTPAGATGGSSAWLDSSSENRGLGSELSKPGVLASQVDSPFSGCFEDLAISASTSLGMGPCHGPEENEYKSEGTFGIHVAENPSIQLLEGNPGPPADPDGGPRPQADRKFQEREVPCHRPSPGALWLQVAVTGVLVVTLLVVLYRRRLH
Glycogen synthase kinase-3 beta (Homo sapiens), sequence (P49841 whole entry, looked up): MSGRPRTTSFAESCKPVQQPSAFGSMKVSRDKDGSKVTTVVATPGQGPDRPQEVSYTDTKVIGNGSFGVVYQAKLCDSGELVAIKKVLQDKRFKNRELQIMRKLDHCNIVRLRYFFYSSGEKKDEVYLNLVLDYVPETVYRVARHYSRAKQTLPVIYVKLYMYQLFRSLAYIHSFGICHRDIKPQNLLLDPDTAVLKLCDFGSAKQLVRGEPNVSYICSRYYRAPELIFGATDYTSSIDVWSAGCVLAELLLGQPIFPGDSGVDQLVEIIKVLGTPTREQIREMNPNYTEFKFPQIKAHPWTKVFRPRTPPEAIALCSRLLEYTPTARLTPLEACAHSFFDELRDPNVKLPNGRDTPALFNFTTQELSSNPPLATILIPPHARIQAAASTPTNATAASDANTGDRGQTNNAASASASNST
Adenosine 3'-phospho 5'-phosphosulfate transporter 1 (Homo sapiens), sequence (Q8TB61 whole entry): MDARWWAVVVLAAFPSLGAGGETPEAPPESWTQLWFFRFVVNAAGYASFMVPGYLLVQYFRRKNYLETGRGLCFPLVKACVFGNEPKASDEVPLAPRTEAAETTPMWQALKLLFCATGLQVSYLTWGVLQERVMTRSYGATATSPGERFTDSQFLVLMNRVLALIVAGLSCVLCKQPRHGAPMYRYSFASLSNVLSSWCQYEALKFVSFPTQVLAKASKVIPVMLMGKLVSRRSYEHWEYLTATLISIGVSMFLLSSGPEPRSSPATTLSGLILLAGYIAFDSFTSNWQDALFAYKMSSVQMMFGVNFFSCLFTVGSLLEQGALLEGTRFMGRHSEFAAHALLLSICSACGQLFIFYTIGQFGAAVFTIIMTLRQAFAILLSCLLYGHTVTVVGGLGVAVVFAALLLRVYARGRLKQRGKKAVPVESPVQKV
Serine/threonine-protein kinase A-Raf (Homo sapiens), sequence (P10398 whole entry): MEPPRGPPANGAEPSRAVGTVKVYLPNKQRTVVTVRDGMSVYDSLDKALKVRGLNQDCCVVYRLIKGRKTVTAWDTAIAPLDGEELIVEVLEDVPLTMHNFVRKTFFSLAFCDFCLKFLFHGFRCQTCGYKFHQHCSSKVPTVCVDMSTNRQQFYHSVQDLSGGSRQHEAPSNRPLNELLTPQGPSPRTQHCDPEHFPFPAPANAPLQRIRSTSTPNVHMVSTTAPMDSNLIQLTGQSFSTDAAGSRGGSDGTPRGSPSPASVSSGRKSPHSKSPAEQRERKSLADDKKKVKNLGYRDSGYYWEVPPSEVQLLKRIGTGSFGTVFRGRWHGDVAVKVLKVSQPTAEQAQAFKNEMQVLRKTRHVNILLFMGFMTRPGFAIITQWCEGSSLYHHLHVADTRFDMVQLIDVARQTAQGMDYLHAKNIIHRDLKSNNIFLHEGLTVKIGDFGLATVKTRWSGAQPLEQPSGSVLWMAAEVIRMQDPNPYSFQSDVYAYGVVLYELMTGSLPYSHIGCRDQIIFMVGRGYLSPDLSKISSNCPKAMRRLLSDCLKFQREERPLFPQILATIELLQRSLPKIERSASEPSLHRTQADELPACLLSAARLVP
Isocitrate dehydrogenase [NADP], mitochondrial (Homo sapiens), sequence (P48735 whole entry): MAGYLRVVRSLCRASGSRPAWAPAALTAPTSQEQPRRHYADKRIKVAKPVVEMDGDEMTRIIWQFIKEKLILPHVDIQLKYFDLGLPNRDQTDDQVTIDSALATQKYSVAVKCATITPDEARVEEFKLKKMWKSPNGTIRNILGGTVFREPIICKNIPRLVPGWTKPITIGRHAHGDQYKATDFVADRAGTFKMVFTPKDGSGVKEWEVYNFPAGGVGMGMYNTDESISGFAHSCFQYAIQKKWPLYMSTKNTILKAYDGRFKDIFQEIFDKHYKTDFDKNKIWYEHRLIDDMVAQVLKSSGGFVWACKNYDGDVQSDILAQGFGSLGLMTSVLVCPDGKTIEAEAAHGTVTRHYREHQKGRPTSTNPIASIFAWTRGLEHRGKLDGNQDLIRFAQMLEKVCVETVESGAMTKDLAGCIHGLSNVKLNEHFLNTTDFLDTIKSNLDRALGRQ
Ceroid-lipofuscinosis neuronal protein 6 (Homo sapiens), sequence (Q9NWW5 whole entry): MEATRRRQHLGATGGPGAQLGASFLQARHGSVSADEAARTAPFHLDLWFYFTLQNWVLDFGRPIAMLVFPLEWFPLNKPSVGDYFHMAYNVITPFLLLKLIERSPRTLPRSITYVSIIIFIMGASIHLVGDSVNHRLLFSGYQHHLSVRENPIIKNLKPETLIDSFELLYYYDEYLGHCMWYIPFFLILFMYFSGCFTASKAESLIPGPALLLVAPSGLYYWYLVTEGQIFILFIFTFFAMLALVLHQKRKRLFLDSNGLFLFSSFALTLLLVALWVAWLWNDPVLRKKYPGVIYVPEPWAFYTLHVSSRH
Coronin-1A (Homo sapiens), sequence (P31146 whole entry): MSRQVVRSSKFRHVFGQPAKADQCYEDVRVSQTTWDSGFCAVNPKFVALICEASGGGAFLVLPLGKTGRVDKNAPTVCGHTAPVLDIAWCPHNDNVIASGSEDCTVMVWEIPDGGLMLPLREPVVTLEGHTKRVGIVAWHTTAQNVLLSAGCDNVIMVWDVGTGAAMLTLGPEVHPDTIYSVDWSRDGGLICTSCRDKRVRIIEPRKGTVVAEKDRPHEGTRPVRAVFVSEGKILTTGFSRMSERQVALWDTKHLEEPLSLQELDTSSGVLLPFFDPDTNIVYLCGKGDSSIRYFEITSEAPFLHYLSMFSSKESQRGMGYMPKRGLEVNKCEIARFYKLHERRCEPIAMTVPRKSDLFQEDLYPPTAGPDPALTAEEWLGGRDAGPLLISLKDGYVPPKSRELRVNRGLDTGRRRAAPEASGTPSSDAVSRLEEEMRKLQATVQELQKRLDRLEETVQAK
Protein THEM6 (Homo sapiens), sequence (Q8WUY1 whole entry): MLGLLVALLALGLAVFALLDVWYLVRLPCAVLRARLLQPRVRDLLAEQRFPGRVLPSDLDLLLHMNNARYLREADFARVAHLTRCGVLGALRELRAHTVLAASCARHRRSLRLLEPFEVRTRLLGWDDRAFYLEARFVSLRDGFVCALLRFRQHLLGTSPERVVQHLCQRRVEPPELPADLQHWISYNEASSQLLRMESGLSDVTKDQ
Transmembrane protein 161A (Homo sapiens), sequence (Q9NX61 whole entry): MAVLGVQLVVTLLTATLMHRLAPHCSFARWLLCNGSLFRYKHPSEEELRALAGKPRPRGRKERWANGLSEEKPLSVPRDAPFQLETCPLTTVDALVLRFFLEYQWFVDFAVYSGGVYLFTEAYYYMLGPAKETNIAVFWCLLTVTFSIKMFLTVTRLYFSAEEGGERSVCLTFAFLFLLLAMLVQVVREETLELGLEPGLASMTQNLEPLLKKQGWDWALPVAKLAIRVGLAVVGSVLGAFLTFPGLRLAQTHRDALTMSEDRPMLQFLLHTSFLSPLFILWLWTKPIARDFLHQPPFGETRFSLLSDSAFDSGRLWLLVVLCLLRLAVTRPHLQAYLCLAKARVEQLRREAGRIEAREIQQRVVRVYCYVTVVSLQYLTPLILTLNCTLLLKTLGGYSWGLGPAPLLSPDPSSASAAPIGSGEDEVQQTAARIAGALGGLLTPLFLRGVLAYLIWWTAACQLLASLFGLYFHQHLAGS
ATP synthase F(0) complex subunit g, mitochondrial (Homo sapiens), sequence (O75964 whole entry, one chain of several): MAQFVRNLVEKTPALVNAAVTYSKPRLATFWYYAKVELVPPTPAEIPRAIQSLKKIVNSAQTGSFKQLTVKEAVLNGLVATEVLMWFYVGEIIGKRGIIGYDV
Sideroflexin-1 (Homo sapiens), sequence (Q9H9B4 whole entry): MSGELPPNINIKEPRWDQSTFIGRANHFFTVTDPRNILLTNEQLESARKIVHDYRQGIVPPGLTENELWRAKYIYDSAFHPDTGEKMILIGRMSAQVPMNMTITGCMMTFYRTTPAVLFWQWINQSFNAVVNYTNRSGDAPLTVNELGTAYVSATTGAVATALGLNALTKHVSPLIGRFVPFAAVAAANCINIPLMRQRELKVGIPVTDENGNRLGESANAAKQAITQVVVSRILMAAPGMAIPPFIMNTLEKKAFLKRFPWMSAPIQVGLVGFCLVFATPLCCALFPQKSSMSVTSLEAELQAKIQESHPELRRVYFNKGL
Heterogeneous nuclear ribonucleoprotein L (Homo sapiens), sequence (P14866 whole entry): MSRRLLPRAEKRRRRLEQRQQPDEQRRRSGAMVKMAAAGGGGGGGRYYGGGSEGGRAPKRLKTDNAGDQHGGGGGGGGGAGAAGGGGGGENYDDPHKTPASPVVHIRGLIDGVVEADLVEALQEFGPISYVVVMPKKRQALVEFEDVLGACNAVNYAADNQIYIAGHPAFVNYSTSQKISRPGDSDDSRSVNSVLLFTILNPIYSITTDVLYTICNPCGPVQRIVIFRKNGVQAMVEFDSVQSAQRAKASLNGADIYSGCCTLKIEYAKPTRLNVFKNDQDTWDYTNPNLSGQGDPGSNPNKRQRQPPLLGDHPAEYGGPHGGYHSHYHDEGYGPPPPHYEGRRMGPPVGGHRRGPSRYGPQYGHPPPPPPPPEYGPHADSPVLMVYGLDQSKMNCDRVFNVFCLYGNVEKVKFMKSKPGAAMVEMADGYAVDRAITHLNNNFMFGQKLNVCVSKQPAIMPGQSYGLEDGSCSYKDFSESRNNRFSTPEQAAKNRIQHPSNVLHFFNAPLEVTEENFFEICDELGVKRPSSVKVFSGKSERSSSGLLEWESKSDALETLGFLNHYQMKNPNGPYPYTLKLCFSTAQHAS

Cc1ccc(C(=O)Nc2cccc(C(F)(F)F)c2)cc1Nc1nc(-c2cccnc2)nc2c1cnn2C
ED50 [1]: 1.06 µM
ED50 [2]: 2.64 µM
ED50 [3]: 3.47 µM
ED50 [4]: 3.59 µM
ED50 [5]: 10.3 µM
ED50 [6]: 982 µM
ED50 [7]: 16.4 µM
ED50 [8]: 1.7 µM
ED50 [9]: 0.0257 µM
ED50 [10]: 0.118 µM
ED50 [11]: 0.102 µM
ED50 [12]: 6.19 µM
ED50 [13]: 13.1 µM
ED50 [14]: 4.09 µM
ED50 [15]: 0.000204 µM
ED50 [16]: 47.7 µM
ED50 [17]: 0.044 µM
ED50 [18]: 0.000443 µM
ED50 [19]: 5.81 µM
ED50 [20]: 0.00187 µM
ED50 [21]: 4.03 µM
ED50 [22]: 0.0189 µM
ED50 [23]: 3.66 µM
ED50 [24]: 0.00189 µM
ED50 [25]: 5.79 µM
ED50 [26]: 14.6 µM
ED50 [27]: 0.398 µM
ED50 [28]: 0.0218 µM
ED50 [29]: 3.12 µM
ED50 [30]: 2.02 µM
ED50 [31]: 0.641 µM
ED50 [32]: 3.63 µM
ED50 [33]: 4.85 µM
ED50 [34]: 5.26 µM
ED50 [35]: 0.678 µM
ED50 [36]: 12.5 µM
ED50 [37]: 2.59 µM
ED50 [38]: 13.5 µM
ED50 [39]: 1.13 µM
ED50 [40]: 3.52 µM
ED50 [41]: 17.2 µM
ED50 [42]: 3.76 µM
ED50 [43]: 7.62 µM
ED50 [44]: 2.11 µM
ED50 [45]: 9.84 µM
ED50 [46]: 16.5 µM

Cc1ccc(C(=O)Nc2cccc(C(F)(F)F)c2)cc1Nc1nc(-c2cccnc2)nc2nn(C)cc12
ED50 [1]: 9.77 µM
ED50 [2]: 0.214 µM
ED50 [3]: 0.012 µM
ED50 [4]: 1.85 µM
ED50 [5]: 0.0871 µM
ED50 [6]: 0.167 µM
ED50 [7]: 0.042 µM
ED50 [8]: 0.0621 µM
ED50 [9]: 1.58 µM
ED50 [10]: 9.62 µM
ED50 [11]: 12.5 µM
ED50 [12]: 1560 µM
ED50 [13]: 2.15 µM
ED50 [14]: 5.74 µM
ED50 [15]: 0.366 µM
ED50 [16]: 0.291 µM
ED50 [17]: 0.434 µM
ED50 [18]: 0.0051 µM
ED50 [19]: 1.17 µM
ED50 [20]: 16.8 µM
ED50 [21]: 0.0177 µM
ED50 [22]: 0.0214 µM
ED50 [23]: 17.5 µM
ED50 [24]: 0.954 µM
ED50 [25]: 0.32 µM
ED50 [26]: 0.0479 µM
ED50 [27]: 0.429 µM
ED50 [28]: 39.2 µM
ED50 [29]: 0.0292 µM
ED50 [30]: 0.0289 µM
ED50 [31]: 0.00892 µM
ED50 [32]: 8.14 µM
ED50 [33]: 0.466 µM
ED50 [34]: 0.394 µM
ED50 [35]: 0.0179 µM
ED50 [36]: 1910 µM
ED50 [37]: 14.9 µM
ED50 [38]: 0.111 µM
ED50 [39]: 1.29 µM
ED50 [40]: 0.161 µM
ED50 [41]: 4.08 µM
ED50 [42]: 7.98 µM
ED50 [43]: 1.79 µM
ED50 [44]: 214 µM
ED50 [45]: 0.0985 µM
ED50 [46]: 0.0507 µM
